Test results published in patent publication US20110212053A1, “PHOSPHATIDYLINOSITOL 3 KINASE INHIBITORS” (priority 2008, published 2011).
“And” between values parts separate entries of the source, which are not always exact repeats. Equal entries are not always repeated.

Columns and labels:
PIM-1 = PIM-1 (Homo sapiens, UniProt P11309); experiment: Radiometric HotSpot kinase assay, PIM-1; type: biochemical; settings: 1 μM compound, 10 μM ATP
Protocol: (§1) Kinase Profiling: The inhibitory activity of the PI3K inhibitor compounds of the invention against 250 protein kinases was determined via the radiometric HotSpot Kinase Profiling (Reaction Biology Corporation, Malvern, Pa.). Compounds were profiled at a final concentration of 1 μM compound against recombinant protein kinases in the presence of 10 μM ATP and data were expressed as percent inhibition. IC50 and/or percent inhibition at 1 μM compound values were determined for select compounds against a subset of kinases (MELK, MNK1, MNK2, mTOR, PIM-1. TRKC, and PDGFRα(D842V)).
(§2) Compounds of the invention were assayed against the select kinases using the KinaseGLO assay (MELK) or the radiometric assay (PIM, TRKC, PDGFRα(D842V), MNK1 and mTOR). IC50 values were determined using 8-10 point half-log dose dilutions and calculated via nonlinear regression analysis using Graphpad Prism data analysis software.

TRKC = TRKC (Homo sapiens, UniProt Q16288); experiment: Radiometric HotSpot kinase assay, TRKC; type: biochemical; settings: 1 μM compound, 10 μM ATP
Chain of TRKC (Q16288 32-839): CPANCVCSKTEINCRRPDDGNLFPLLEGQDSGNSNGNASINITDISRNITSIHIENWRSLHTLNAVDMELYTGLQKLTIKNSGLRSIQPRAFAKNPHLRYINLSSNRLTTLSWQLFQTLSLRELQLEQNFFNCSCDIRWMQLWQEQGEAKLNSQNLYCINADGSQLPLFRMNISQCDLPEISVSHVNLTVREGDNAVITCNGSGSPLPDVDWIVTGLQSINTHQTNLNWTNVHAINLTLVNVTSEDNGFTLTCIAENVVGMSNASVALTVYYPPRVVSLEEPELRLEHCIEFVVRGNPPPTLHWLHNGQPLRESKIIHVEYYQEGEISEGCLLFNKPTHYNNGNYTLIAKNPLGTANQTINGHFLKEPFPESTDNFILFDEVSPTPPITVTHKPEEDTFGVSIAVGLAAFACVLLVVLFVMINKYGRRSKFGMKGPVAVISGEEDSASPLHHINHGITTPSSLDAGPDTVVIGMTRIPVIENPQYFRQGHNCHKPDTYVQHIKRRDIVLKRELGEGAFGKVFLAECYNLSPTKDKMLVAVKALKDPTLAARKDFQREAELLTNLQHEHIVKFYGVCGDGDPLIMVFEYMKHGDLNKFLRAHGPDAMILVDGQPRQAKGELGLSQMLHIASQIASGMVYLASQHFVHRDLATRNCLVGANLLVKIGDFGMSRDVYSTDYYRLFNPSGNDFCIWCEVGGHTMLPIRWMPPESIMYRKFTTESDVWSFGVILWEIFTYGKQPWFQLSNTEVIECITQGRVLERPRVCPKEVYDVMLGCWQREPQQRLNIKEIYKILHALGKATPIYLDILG
Protocol: as §1, §2

MELK = biological target: T1, MELK (Homo sapiens, UniProt Q14680); experiment: MELK kinase assay (KinaseGLO); type: biochemical
T1 construct: purchased Invitrogen or Millipore
T1 sequence (Q14680 whole entry): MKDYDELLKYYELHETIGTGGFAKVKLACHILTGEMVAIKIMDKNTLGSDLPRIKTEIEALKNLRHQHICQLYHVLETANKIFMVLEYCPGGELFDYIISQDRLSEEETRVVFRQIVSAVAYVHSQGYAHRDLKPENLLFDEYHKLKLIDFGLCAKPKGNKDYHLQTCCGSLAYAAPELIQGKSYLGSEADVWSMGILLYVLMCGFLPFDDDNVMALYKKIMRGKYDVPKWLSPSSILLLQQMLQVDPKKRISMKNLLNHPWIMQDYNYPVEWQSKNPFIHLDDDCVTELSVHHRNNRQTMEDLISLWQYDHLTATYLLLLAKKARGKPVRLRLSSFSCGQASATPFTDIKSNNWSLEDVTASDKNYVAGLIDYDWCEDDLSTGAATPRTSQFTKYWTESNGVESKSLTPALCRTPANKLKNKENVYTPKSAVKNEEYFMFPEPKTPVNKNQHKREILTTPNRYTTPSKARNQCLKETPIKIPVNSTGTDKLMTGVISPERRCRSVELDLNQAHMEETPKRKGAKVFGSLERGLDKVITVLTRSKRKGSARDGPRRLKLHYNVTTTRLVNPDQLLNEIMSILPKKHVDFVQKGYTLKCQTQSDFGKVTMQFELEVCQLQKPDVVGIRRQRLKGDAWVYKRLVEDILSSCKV
Protocol: (§3) Compound Preparation: KinaseGLO assay: 30× stocks of inhibitors were prepared in DMSO. A 10 mM master stock was prepared and all other stocks were generated by serial dilution of this master stock in DMSO. The final concentration of DMSO in the kinase reaction was 3.3% (v/v).
MELK kinase assay: The ability of compounds to inhibit MELK was also determined using the KinaseGLO assay. Briefly, MELK enzymes was thawed and diluted to a final concentration of 2.64 ng/μL in reaction buffer (50 mM HEPES, pH7.5, 100 mM NaCl, 2.0 mM DTT, 3.0 mM MgCl2, 1.0 mM EGTA, 10 μM ATP). 19 μl of this kinase reaction mixture was aliquoted into test wells (50 ng MELK/well) in a Microfluor2 white 96-well plate (Thermo Scientific). As a preincubation step, 1 μl of 30× compound dilutions was added to the appropriate test wells to generate a ten point dose-response ranging from 0.0 μM-10 μM inhibitor, and incubated for 15 minutes at 4° C. The reaction was started by addition of 10 μL of 150 μM ZIPtide peptide substrate resuspended in reaction buffer (50 μM final concentration of ZIPtide). Reactions were incubated at room temperature for 2 hours prior to addition of 30 μL of KinaseGLO reagent and development as described. Maximal luminescence (no MELK activity/maximal MELK inhibition) was determined from reaction buffer plus peptide substrate only controls. The minimal signal (maximal MELK activity) was determined by the 0.0 μM compound (DMSO only) control. IC50 values were calculated via non-linear regression using GraphPad Prism data analysis software. […]
as §2

PDGFRα(D842V) = PDGFRα(D842V) (Homo sapiens, UniProt P16234, D842V); experiment: Radiometric HotSpot kinase assay, PDGFRα(D842V); type: biochemical
Chain of PDGFRα(D842V) (P16234 24-1089 D842V): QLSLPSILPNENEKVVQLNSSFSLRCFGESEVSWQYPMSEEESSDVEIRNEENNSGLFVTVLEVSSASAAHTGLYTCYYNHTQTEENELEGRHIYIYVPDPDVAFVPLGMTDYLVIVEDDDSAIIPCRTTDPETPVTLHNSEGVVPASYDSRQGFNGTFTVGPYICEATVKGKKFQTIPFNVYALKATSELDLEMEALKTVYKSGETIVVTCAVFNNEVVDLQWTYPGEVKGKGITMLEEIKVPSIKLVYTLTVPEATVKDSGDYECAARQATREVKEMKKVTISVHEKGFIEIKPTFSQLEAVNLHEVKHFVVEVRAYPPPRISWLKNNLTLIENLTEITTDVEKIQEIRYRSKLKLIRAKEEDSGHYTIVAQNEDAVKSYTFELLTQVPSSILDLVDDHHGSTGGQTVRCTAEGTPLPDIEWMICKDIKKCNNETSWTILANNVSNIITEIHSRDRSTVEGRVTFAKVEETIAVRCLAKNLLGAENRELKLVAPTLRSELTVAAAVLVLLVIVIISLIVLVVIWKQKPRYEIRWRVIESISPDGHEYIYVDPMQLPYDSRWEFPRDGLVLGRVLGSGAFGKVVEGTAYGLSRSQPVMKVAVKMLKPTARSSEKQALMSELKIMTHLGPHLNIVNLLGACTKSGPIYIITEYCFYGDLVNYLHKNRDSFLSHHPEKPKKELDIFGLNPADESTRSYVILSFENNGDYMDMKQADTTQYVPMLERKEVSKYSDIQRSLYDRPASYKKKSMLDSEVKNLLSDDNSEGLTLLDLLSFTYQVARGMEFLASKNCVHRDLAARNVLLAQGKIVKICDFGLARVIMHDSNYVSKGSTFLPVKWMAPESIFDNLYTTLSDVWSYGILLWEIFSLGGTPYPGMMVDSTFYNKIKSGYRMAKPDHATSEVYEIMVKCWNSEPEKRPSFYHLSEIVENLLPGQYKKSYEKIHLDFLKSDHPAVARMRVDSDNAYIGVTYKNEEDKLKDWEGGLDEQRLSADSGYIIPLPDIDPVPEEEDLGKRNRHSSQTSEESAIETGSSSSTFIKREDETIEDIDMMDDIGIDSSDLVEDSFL
Protocol: as §1, §2

PI3Kα = biological target: T2, PI3Kα (Homo sapiens, UniProt P42336); experiment: KinaseGLO luminescent PI3-kinase assay, PI3Kα; type: biochemical
T2 construct: purchased Invitrogen or Millipore
T2 sequence (P42336 whole entry): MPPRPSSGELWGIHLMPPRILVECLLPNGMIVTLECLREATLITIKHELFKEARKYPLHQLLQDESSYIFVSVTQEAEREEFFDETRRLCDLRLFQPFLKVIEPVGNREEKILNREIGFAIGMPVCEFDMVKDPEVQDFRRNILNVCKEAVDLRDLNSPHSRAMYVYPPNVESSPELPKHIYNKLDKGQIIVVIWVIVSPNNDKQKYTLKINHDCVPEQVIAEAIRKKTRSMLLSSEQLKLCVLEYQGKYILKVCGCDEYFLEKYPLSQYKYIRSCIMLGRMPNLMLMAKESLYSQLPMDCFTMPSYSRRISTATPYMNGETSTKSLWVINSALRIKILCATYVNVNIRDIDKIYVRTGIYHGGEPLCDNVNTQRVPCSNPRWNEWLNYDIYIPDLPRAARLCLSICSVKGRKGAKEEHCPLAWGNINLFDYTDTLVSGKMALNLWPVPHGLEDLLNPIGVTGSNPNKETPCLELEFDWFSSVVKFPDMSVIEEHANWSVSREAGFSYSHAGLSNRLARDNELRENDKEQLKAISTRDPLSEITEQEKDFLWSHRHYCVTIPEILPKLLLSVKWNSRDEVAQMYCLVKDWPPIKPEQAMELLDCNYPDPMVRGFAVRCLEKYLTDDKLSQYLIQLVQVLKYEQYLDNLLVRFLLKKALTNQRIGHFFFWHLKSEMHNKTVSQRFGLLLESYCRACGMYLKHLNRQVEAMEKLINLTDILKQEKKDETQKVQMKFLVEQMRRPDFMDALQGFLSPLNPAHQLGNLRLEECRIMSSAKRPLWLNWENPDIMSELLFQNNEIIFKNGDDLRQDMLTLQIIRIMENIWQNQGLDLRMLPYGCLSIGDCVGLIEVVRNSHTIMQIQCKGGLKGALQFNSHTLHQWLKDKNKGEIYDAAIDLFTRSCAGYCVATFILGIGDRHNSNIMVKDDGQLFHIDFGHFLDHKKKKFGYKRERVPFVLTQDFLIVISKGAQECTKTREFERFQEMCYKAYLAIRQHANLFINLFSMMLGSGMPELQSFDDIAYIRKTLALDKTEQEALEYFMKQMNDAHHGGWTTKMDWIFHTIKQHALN
T2 sequence (P27986 whole entry partner): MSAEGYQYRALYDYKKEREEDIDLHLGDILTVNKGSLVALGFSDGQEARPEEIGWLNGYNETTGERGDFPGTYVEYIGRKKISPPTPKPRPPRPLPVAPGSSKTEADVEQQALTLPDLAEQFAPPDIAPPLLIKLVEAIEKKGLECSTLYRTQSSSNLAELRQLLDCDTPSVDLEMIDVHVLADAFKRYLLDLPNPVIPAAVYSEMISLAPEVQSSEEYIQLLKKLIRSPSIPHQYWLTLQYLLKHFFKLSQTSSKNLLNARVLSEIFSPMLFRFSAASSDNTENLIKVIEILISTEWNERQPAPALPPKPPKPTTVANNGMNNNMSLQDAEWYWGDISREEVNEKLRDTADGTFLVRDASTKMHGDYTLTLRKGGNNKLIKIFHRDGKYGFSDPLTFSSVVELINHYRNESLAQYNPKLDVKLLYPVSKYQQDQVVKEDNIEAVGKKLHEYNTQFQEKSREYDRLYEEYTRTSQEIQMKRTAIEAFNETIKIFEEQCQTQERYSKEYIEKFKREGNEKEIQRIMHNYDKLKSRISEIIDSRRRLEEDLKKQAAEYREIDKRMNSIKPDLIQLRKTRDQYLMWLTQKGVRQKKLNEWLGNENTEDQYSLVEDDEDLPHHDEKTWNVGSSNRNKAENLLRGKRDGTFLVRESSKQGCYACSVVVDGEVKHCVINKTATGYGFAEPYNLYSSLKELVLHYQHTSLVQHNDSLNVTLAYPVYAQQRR
Protocol: as §3
PI3-Kinase Assay: The KinaseGLO® Luminescent Kinase Assay (Promega) is a luciferin-luciferase based luminescent assay that utilizes a proprietary thermostable luciferase to quantify the ATP remaining in a solution after a kinase reaction. The luminescent signal generated using KinaseGLO® directly correlates with ATP concentration, and therefore inversely correlates with kinase activity.
PI3K enzyme sample was thawed and diluted to 100 ng/μL in enzyme dilution buffer (50 mM HEPES, pH7.5, 3.0 mM MgCl2, 1.0 mM EGTA) and stored on ice. PI3Kα enzyme was diluted to a final concentration of 1 ng/μL in reaction buffer (for PI3Kα; 50 mM HEPES, pH7.5, 100 mM NaCl, 2.0 mM DTT, 3.0 mM MgCl2, 1.0 mM EGTA, 10 μM ATP) and gently mixed. 25 μL of this kinase reaction was then aliquoted into test wells in a Microfluor2 white 96-well plate (Thermo Scientific). As a preincubation step, 1 μl of 30× compound dilutions was added to the appropriate test wells to generate a ten point dose-response ranging from 0.0 μM-10 μM inhibitor. The enzyme-inhibitor mixture was then incubated for 30 minutes at 4° C. After this preincubation, […] (50 μM final concentration) was added to each test well to initiate the kinase reaction. Reactions were incubated at room temperature for 2 hours with moderate shaking. The KinaseGLO® luminescent reagent (Promega) was prepared according to the manufacturer's instructions. Both the KinaseGLO® buffer and substrate were allowed to thaw and equilibrate at room temperature for two hours prior to mixing and use. The PI3-kinase reaction was terminated by the addition of 30 μL of reconstituted KinaseGLO® reagent to each reaction well and then incubated in the dark for 10 minutes at room temperature. Luminescent signal was detected using a SpectraMax M5 (Molecular Devices). Maximal luminescence (no PI3K activity/maximal PI3K inhibition) was determined from reaction buffer plus SC-PI substrate only controls. The minimal signal (maximal PI3K activity) was determined by the 0.0 μM compound (DMSO only) control. IC50 values were calculated via non-linear regression using GraphPad Prism data analysis software.
Compounds were assayed against the Class I PI3Kα, PI3Kβ, PI3Kγ, PI3Kδ, PI3Kα(H1047R) and PI3Kα(E545K) in the KinaseGLO assay as described in Example 2, and against the Class IV PI3K mTOR in the radiometric assay. IC50 values (μM) were determined using 8-10 point half-log dose dilutions and calculated via nonlinear regression analysis using Graphpad Prism data analysis software.

[1] = test system: HCT116 colorectal carcinoma cells; experiment: Caspase-GLO 3/7 assay, HCT116; type: cell-based; settings: Homo sapiens, HCT-116, 24 hours, CaspaseGLO
Protocol: Caspase-GLO 3/7 Assay: To determine the ability of the PI3K inhibitor compounds of the invention to induce programmed cell death (apoptosis), caspase activity was monitored as an indicator of apoptosis. Human HCT116 colorectal carcinoma and PANC-1 pancreatic carcinoma cells were plated at 2000-8000 cells per well in white 96-well microplates and allowed to attach overnight. The following day the medium was removed by aspiration and the cells were washed once with 200 μL of DMEM containing 0.5% (v/v) FBS (assay medium). The cells were then incubated in 100 μL of assay medium containing increasing concentrations of the PI3K inhibitor compounds (from 0.003 μM to 10.0 μM in half-log dilutions) for 24 to 72 hours. Caspase activity was detected using the Caspase-GLO 3/7 assay (Promega) according to the manufacturer's instructions and measured on a Spectramax M5 multi-detection microplate reader (Molecular Devices Corp.). EC50 values were calculated via non-linear regression using GraphPad Prism data analysis software.
HCT116 cells were treated overnight with a pyrazoloquinoline compound of the invention, or with a commercially available dual PI3K(α,β,δ,γ)/mTOR inhibitor, or with a commercially available PI3K(α,β,δ,γ)-only inhibitor at concentrations of 0.5, 1.0 and 5.0 μM.

Chain of PIM-1 (P11309 whole entry): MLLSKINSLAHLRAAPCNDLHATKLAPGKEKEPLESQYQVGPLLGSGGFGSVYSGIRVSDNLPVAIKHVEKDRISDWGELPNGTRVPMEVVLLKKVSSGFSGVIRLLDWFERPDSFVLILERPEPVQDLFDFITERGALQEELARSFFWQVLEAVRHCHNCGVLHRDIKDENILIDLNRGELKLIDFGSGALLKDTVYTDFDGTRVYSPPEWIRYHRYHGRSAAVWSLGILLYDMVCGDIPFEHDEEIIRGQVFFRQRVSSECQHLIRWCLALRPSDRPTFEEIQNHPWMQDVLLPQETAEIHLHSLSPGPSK

| inhibition at 1 µM (PIM-1) [%] | inhibition at 1 µM (TRKC) [%] | IC50 (MELK) | IC50 (PDGFRα(D842V)) [µM] | IC50 (PI3Kα) [µM] | Structure (SMILES) | EC50 [1] [µM] |
| --- | --- | --- | --- | --- | --- | --- |
|  | > 60 | > 0.03 µM |  |  | Cc1ccccc1-c1ccc2ncc3[nH]nc(-c4ccc(C(C)(C)C#N)cc4)c3c2c1 [Compound 1124, 2-methyl-2-(4-(8-o-tolyl-3H-pyrazolo[3,4-c]quinolin-1-yl)phenyl)propanenitrile] |  |
| 50 to 60 | ≥ 70 | > 0.03 µM | > 0.1 |  | CC(C)(C#N)c1ccc(-c2n[nH]c3cnc4ccc(-c5cccc(Cl)c5)cc4c23)cc1 [Compound 1113, 2-(4-(8-(3-chlorophenyl)-3H-pyrazolo[3,4-c]quinolin-1-yl)phenyl)-2-methylpropanenitrile] |  |
|  | ≥ 75 | > 0.03 µM | > 0.1 |  | CC(C)(C#N)c1ccc(-c2n[nH]c3cnc4ccc(-c5cc(F)cc(F)c5)cc4c23)cc1 [Compound 1112, 2-(4-(8-(3,5-difluorophenyl)-3H-pyrazolo[3,4-c]quinolin-1-yl)phenyl)-2-methylpropanenitrile] |  |
| 60 to 85 | > 60 | > 0.03 µM | > 1 |  | COc1cccc(-c2ccc3ncc4[nH]nc(-c5ccc(C(C)(C)C#N)cc5)c4c3c2)c1 [Compound 1115, 2-(4-(8-(3-methoxyphenyl)-3H-pyrazolo[3,4-c]quinolin-1-yl)phenyl)-2-methylpropanenitrile] |  |
|  |  | > 0.03 µM | > 0.1 | > 0.02 | CC(C)(C#N)c1ccc(-c2n[nH]c3cnc4ccc(-c5ccc6c(c5)CC=N6)cc4c23)cc1 [Compound 1114, 2-(4-(8-(3H-indol-5-yl)-3H-pyrazolo[3,4-c]quinolin-1-yl)phenyl)-2-methylpropanenitrile] |  |
|  |  | > 0.03 µM | > 1 | < 0.01 | COc1ccc(-c2ccc3ncc4[nH]nc(-c5ccc(C(C)(C)C#N)cc5)c4c3c2)cn1 [Compound 1118, 2-(4-(8-(6-methoxypyridin-3-yl)-3H-pyrazolo[3,4-c]quinolin-1-yl)phenyl)-2-methylpropanenitrile] |  |
|  |  |  |  | > 0.02 | CC(C)(C#N)c1ccc(-c2n[nH]c3cnc4ccc(-c5cccc(Nc6ccccn6)c5)cc4c23)cc1 [Compound 1120, 2-methyl-2-(4-(8-(3-(pyridin-2-ylamino)phenyl)-3H-pyrazolo[3,4-c]quinolin-1-yl)phenyl)propanenitrile] |  |
|  |  | > 0.03 µM |  |  | Cc1ccc(-c2ccc3ncc4[nH]nc(-c5ccc(C(C)(C)C#N)cc5)c4c3c2)cc1 [Compound 1126, 2-methyl-2-(4-(8-p-tolyl-3H-pyrazolo[3,4-c]quinolin-1-yl)phenyl)propanenitrile] |  |

More lines, now with the values behind:

| Structure (SMILES) | inhibition at 1 µM (PIM-1) [%] | inhibition at 1 µM (TRKC) [%] | IC50 (MELK) | IC50 (PDGFRα(D842V)) [µM] | IC50 (PI3Kα) [µM] | EC50 [1] [µM] |
| --- | --- | --- | --- | --- | --- | --- |
| CC(C)(C#N)c1ccc(-c2n[nH]c3cnc4ccc(-c5ccccc5)cc4c23)cc1 [Compound 1125, 2-methyl-2-(4-(8-phenyl-3H-pyrazolo[3,4-c]quinolin-1-yl)phenyl)propanenitrile] | 60 to 85 | ≥ 75 | > 0.03 µM | > 1 |  |  |
| CC(C)(C#N)c1ccc(-c2n[nH]c3cnc4ccc(-c5ccc(F)cc5)cc4c23)cc1 [Compound 1116, 2-(4-(8-(4-fluorophenyl)-3H-pyrazolo[3,4-c]quinolin-1-yl)phenyl)-2-methylpropanenitrile] | 60 to 85 | ≥ 75 | > 0.03 µM |  |  |  |
| Cc1cccc(-c2ccc3ncc4[nH]nc(-c5ccc(C(C)(C)C#N)cc5)c4c3c2)c1 [Compound 1123, 2-methyl-2-(4-(8-m-tolyl-3H-pyrazolo[3,4-c]quinolin-1-yl)phenyl)propanenitrile] | 50 to 60 | > 60 | > 0.03 µM | > 1 |  |  |
| CC(C)(C#N)c1ccc(-c2n[nH]c3cnc4ccc(-c5cccc(Nc6ccncc6)c5)cc4c23)cc1 [Compound 1121, 2-methyl-2-(4-(8-(3-(pyridin-4-ylamino)phenyl)-3H-pyrazolo[3,4-c]quinolin-1-yl)phenyl)propanenitrile] | > 95 | > 97 | 0.012 to 0.02 µM | > 0.1 | > 0.02 |  |
| CN[C@@H]1C[C@H]2O[C@@](C)([C@@H]1OC)n1c3ccccc3c3c4c(c5c6ccccc6n2c5c31)C(=O)NC4 [staurosporine] |  |  |  |  |  | 0.007 |
| CC(C)(C#N)c1ccc(-c2n[nH]c3cnc4ccc(-c5ccn6ncnc6c5)cc4c23)cc1 [Compound 1111] | > 95 | > 97 | 0.02 to 0.03 µM |  | > 0.02 |  |
| CC(C)(C#N)c1ccc(-c2n[nH]c3cnc4ccc(-c5cncnc5)cc4c23)cc1 [Compound 1108, 2-methyl-2-(4-(8-(pyrimidin-5-yl)-3H-pyrazolo[3,4-c]quinolin-1-yl)phenyl)propanenitrile] | 60 to 85 | > 97 | 0.012 to 0.02 µM and > 0.03 µM | > 0.1 | < 0.01 |  |
| COc1ccc(-c2ccc3ncc4[nH]nc(-c5ccc(C(C)(C)C#N)cc5)c4c3c2)cc1 [Compound 1117, 2-(4-(8-(4-methoxyphenyl)-3H-pyrazolo[3,4-c]quinolin-1-yl)phenyl)-2-methylpropanenitrile] | 60 to 85 | > 50 | > 0.03 µM |  |  |  |
